# Test results as given in patent publication US20230285399A1, “Compound for the treatment and prophylaxis of a lipofuscin-associated disease and/or a disease associated with aged oxidized melanin” (EBERHARD KARLS UNIVERSITAET TUEBINGEN MEDIZINISCHE FAKULTAET, priority 2020, published 2023).
# “Also recorded” adds a separate entry of the source.
# How the values were obtained:
# pigmented Abca^4−/− mice [1] = details: mouse, in vivo
# function of the retina = details: mouse, in vivo
# pigmented Abca^4−/− mice [2] = experiment: Analysis of degradation products from lipofuscin (bisretinoids) after SIN-1 by HPLC; assay type: in vivo; details: 130 μg SIN-1 into the right eye, 48 hours, 6 month old mice, whole eyes; stated for all mice
# Method: (§1) Seven albino and 6 pigmented mice were used. The left eyes remained untreated as control. After 48 hours the eyes from the Abca^4-/- mice were enucleated, immediately snap-frozen and stored at -80° C. for further processing. All the tissue preparation was made under dim red light and bisretinoids were extracted from the whole eyes and analyzed by HPLC following published protocols (Radu et al. 2004; Fang et al. 2020). Data were presented as picomoles per eye for A2E, iso-A2E, Total A2E or milli-absorbance (mAU) per eye for the other bisretinoids: […], dihydro-A2PE (A2PE-H2), and all-trans-RAL-dimer PE conjugates (at-RAL dimer-PE) as described (Radu et al. 2004).
# albino Abca^4−/− mice [3] = experiment: as above; assay type: in vivo; details: 130 μg SIN-1 into the right eye, 48 hours, 6 month old albino mice
# Method: as §1
# pigmented Abca^4−/− mice [4] = experiment: Removal of lipofuscin from RPE with SIN-1, fluorescence microscopy (SW-AF, NIR-AF) of semi-thin eye sections; assay type: in vivo
# Method: Pigmented WT mice (12952), pigmented Abca^4-/- mice (12954/SvJae-Abca4[…] albino Abca^4-/- mice^(BALB/c-Abca4tm1Ght) (Stargardt mice) were used in this work. WT mice were purchased from Harlan Laboratories ([…], UK), the knock-out strains were bred in the inventor's in-house facility. Light cycling was 12 h light (approximately 50 lx in cages)/12 h dark, food and water were available ad libitum. Animals were anesthetized by i.p. injection of a mix of fentanyl (0.05 mg/kg body weight), midazolam (5.0 mg/kg body weight) and medetomidine (0.50 mg/kg body weight). […] The mice were 2 years old. The left eyes remained untreated as controls. The mice were killed 48 hours after the injections and the eyes were […]. Mouse eyes were fixed, embedded in epon resin and sectioned according to standard procedures. For fluorescence analysis, post-fixation and staining with heavy metals was omitted. […] Filter sets were a custom made lipofuscin filter set (excitation 370/36 nm, emission 575/15, 400 nm beam splitter) for short wavelength-autofluorescence (SW-AF) and a commercial Cy7 filter set (excitation 708/75 nm, emission 809/81 nm, 757 nm beam splitter) for NIR-AF (Near infrared AF), respectively. The lipofuscin filter set is designed to fit the reported excitation and emission maximums for lipofuscin. Binning x2 was applied for all images and acquisition times, as well as microscope and software settings were held constant for any set of samples to allow comparison of fluorescence intensities. If indicated, images with low AF intensities were post-processed with the Auto adjust colors function of the […] software to allow the localization of weak AF signals. This function enhances the contrast by redefining the darkest pixel as pure black and the brightest pixel as pure white in the histogram on a channel-by-channel basis. Fluorescence intensities were determined using Fiji software. Regions of interest were determined in fluorescence and BF images using the default threshold, and area and integrated optical density (IOD) of the region of interest were measured. […] Student's t-test with JMP 13 software (SAS, Cary, NC, USA) was used for statistical analysis. P<0·05 was considered statistically significant.
# albino Abca^4−/− mice [5] = experiment: Removal of lipofuscin from RPE with SIN-1, fluorescence microscopy (SW-AF) of semi-thin eye sections; assay type: in vivo; details: 130 μg SIN-1 into the right eye, 48 hours, vs untreated eyes
# Method: Pigmented WT mice (12952), pigmented Abca^4-/- mice (12954/SvJae-Abca4[…] albino Abca^4-/- mice^(BALB/c-Abca4tm1Ght) (Stargardt mice) were used in this work. WT mice were purchased from Harlan Laboratories ([…], UK), the knock-out strains were bred in the inventor's in-house facility. Light cycling was 12 h light (approximately 50 lx in cages)/12 h dark, food and water were available ad libitum. Animals were anesthetized by i.p. injection of a mix of fentanyl (0.05 mg/kg body weight), midazolam (5.0 mg/kg body weight) and medetomidine (0.50 mg/kg body weight). […] The mice were 2 years old. The left eyes remained untreated as controls. The mice were killed 48 hours after the injections and the eyes were […]. Mouse eyes were fixed, embedded in epon resin and sectioned according to standard procedures. For fluorescence analysis, post-fixation and staining with heavy metals was omitted. […] Binning x2 was applied for all images and acquisition times, as well as microscope and software settings were held constant for any set of samples to allow comparison of fluorescence intensities. […] Fluorescence intensities were determined using Fiji software. Regions of interest were determined in fluorescence and BF images using the default threshold, and area and integrated optical density (IOD) of the region of interest were measured. […]
# pigmented Abca^4−/− mice [6] = experiment: Combination of SIN-1 with riboflavin, quantification of fluorescent lipofuscin granules; assay type: in vivo; details: 130 μg SIN-1 alone or with 80 μg Riboflavin, intravitreal, 48 hours; 100% is stated as locally
# [7] = SIN-1 treated eye vs untreated eye of the same mouse
structure (smiles),measurement,setting,value
"O=[N+]([O-])OC1COC2C(O[N+](=O)[O-])COC12 (centres unmarked) [Isoket, 3,6-bisnitrooxyhexahydrofuro[3,2-b]-furan]","fluorescence of lipofuscin (fluorescence intensity, arbitrary units, FIG. 3)",pigmented Abca^4−/− mice [1],removed the fluorescence of lipofuscin
same,number of lipofuscin granules in RPE cell layer under the fluorescence microscope (FIG. 4),pigmented Abca^4−/− mice [1],reduced the number of lipofuscin granules clearly
same,"ERG responses, treated vs untreated eye",function of the retina,no difference between the treated and the untreated eyes
"O=[N+]([O-])O[C@@H]1CO[C@H]2[C@@H]1OC[C@@H]2O [IS5, Isosorbide mononitrate]","fluorescence of lipofuscin (fluorescence intensity, arbitrary units, FIG. 3)",pigmented Abca^4−/− mice [1],removed the fluorescence of lipofuscin
same,reduction of the amount of fluorescent lipofuscin granules,pigmented Abca^4−/− mice [1],77%
same,"ERG responses, treated vs untreated eye",function of the retina,no difference between the treated and the untreated eyes
"N=c1c[n+](N2CCOCC2)[n-]o1 [SIN-1, 3-morpholinosydnonimine]","amount of degradation products of lipofuscin (A2E, iso-A2E, Total A2E, A2PE, A2PE-H2, at-RAL dimer-PE)",pigmented Abca^4−/− mice [2],enhanced the amount of the degradation products of lipofuscin significantly
same,enhancement of lipofuscin metabolites in albino mice compared with pigmented mice,albino Abca^4−/− mice [3],much lesser
same,"lipofuscin content in the retinal pigment epithelium (RPE), recognized by the loss of SW-AF","pigmented Abca^4−/− mice [4]; 130 μg SIN-1 into the right eye, 48 hours, mean of 5 eyes vs 5 untreated eyes, mice 2 years old",significant (p<0.05) reduction
same,NIR-AF fluorescence of the melanosomes (RPE),"pigmented Abca^4−/− mice [4]; 130 μg SIN-1 into the right eye, 48 hours, vs untreated eye",reduced but not significant (p>0.05); also recorded: somewhat diminished
same,NIR-AF in the melanosomes of the choroidal melanocytes,pigmented Abca^4−/− mice [4]; [7],seems to be not effected
same,number of lipofuscin granules in SW-AF image of semi thin sections,pigmented Abca^4−/− mice [4]; [7],reduced in number
same,fluorescence of lipofuscin (SW-AF),albino Abca^4−/− mice [5],no effect
same,removal of fluorescent lipofuscin granules from the RPE cells,pigmented Abca^4−/− mice [6],75%
